According to US10294202B2, “Pyrrolidinones as herbicides” (FMC Corporation, priority 2013, dated 2019):

Key:
blackgrass [1] = test: Test A postemergence herbicide test; assay type: in vivo, Alopecurus myosuroides
Summary of the method: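 Injury was rated visually about 10 days after treatment on a 0 (no effect) to 100 (complete control) scale, compared with untreated plants. Test chemicals were sprayed postemergence onto greenhouse plants 2–10 cm high at one to two leaves, grown in a loam–sand blend.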

foxtail, giant = test: Test C pre-/postemergence herbicide test; assay type: in vivo, Setaria faberii
Summary of the method: (§1)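 Response scores range from 0, meaning no effect, to 100, meaning complete control, assigned visually by comparison with controls roughly two weeks (13 to 15 days) after spraying. Applications were made preemergence to seeded loam–sand soil and postemergence to 1- to 4-leaf plants.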

velvetleaf = test: Test C pre-/postemergence herbicide test; assay type: in vivo, Abutilon theophrasti
Summary of the method: as §1

blackgrass [2] = test: Test C pre-/postemergence herbicide test; assay type: in vivo, Alopecurus myosuroides
Description: Seeds of plant species selected from blackgrass (Alopecurus myosuroides), ryegrass, Italian (Italian ryegrass, Lolium multiflorum), wheat (winter wheat, Triticum aestivum), galium (catchweed bedstraw, Galium aparine), corn (Zea mays), crabgrass, large (large crabgrass, Digitaria sanguinalis), foxtail, giant (giant foxtail, Setaria faberii), johnsongrass (Sorghum halepense), lambsquarters (Chenopodium album), morningglory (Ipomoea coccinea), nutsedge, yellow (yellow nutsedge, Cyperus esculentus), pigweed (Amaranthus retroflexus), ragweed (common ragweed, Ambrosia elatior), soybean (Glycine max), barnyardgrass (Echinochloa crus-galli), oilseed rape (Brassica napus), waterhemp (common waterhemp, Amaranthus rudis), kochia (Kochia scoparia), oat, wild (wild oat, Avena fatua), surinam grass (Brachiaria decumbens), foxtail, green (green foxtail, Setaria viridis), goosegrass (Eleusine indica), bromegrass, downy (downy bromegrass, Bromus tectorum), nightshade (eastern black nightshade, Solanum ptycanthum), cocklebur (common cocklebur, Xanthium strumarium), cupgrass, woolly (woolly cupgrass, Eriochloa villosa), bermudagrass (Cynodon dactylon), sunflower, (common oilseed sunflower, Helianthus annuus), Russian thistle (Salsola kali) and velvetleaf (Abutilon theophrasti) were planted into a blend of loam soil and sand and treated preemergence with test chemicals formulated in a non-phytotoxic solvent mixture which included a surfactant. At the same time, plants selected from these crop and weed species and also barley (winter barley, Hordeum vulgare), […]), chickweed (common chickweed, Stellaria media), deadnettle (henbit deadnettle, Lamium amplexicaule), and canarygrass (littleseed canarygrass, Phalaris minor) were planted in pots containing Redi-Earth® planting medium (Scotts Company, 14111 Scottslawn Road, Marysville, Ohio 43041) comprising spaghnum peat moss, vermiculite, wetting agent and starter nutrients and treated with postemergence applications of test chemicals formulated in the same manner. Plants ranged in height from 2 to 18 cm (1- to 4-leaf stage) for postemergence treatments. Treated plants and controls were maintained in a greenhouse for 13 to 15 days, after which time all species were compared to controls and visually evaluated. Plant response ratings, summarized in Table C, are based on a scale of 0 to 100 where 0 is no effect and 100 is complete control. A dash (-) response means no test result.

barnyardgrass = test: Test C pre-/postemergence herbicide test; assay type: in vivo, Echinochloa crus-galli
Summary of the method: as §1

galium = test: Test C pre-/postemergence herbicide test; assay type: in vivo, Galium aparine; details: Preemergence; for Plant response rating, Galium: 125 g ai/ha; for Plant response rating (scale of 0 to 100), Galium: 250 g ai/ha
Summary of the method: as §1

[3] = Preemergence, 31 g ai/ha, scale 0 to 100, 0 is no effect and 100 is complete control
[4] = Preemergence, 62 g ai/ha, scale 0 to 100 (0 no effect, 100 complete control)
[5] = Preemergence, 125 g ai/ha, scale 0 to 100 (0 no effect, 100 complete control)
[6] = Preemergence, 62 g ai/ha, scale 0 to 100
[7] = 31 g ai/ha, scale 0 to 100, 0 is no effect and 100 is complete control
[8] = 62 g ai/ha, scale 0 to 100 (0 no effect, 100 complete control)
[9] = scale 0 to 100 (0 no effect, 100 complete control)
[10] = 125 g ai/ha, visual rating on 0 to 100 scale (0 no effect, 100 complete control), approx. 10 days
[11] = 500 g ai/ha, 0 to 100 scale (0 no effect, 100 complete control)
[12] = Postemergence, 31 g ai/ha, scale 0 to 100 (0 no effect, 100 complete control)
[13] = Postemergence, 62 g ai/ha, scale 0 (no effect) to 100 (complete control)
[14] = Postemergence, 125 g ai/ha, scale 0 to 100 (0 no effect, 100 complete control)
[15] = Postemergence, 250 g ai/ha, scale 0 to 100 (0 no effect, 100 complete control)
[16] = Preemergence, 125 g ai/ha, scale 0 to 100

Structure (SMILES) | Foxtail, Giant plant response rating (foxtail, giant; [3]) | Foxtail, Giant plant response rating (foxtail, giant; [4]) | Plant response rating, Foxtail, Giant (foxtail, giant; [5]) | Plant response rating (scale of 0 to 100), Foxtail, Giant (foxtail, giant; Preemergence, 250 g ai/ha) | Velvetleaf plant response rating (velvetleaf; [4]) | Plant response rating, Velvetleaf (velvetleaf; [5]) | Plant response rating (scale of 0 to 100), Velvetleaf (velvetleaf; Preemergence, 250 g ai/ha) | Blackgrass plant response rating (blackgrass [2]; [3]) | Plant response rating, Blackgrass (blackgrass [2]; [5]) | Plant response rating (scale of 0 to 100), Blackgrass (blackgrass [2]; Preemergence, 250 g ai/ha) | Barnyardgrass plant response rating (barnyardgrass; [3]) | Plant response rating, Barnyardgrass (barnyardgrass; [5]) | Plant response rating (scale of 0 to 100; 0 is no effect, 100 is complete control), Barnyardgrass (barnyardgrass; Preemergence, 250 g ai/ha) | Galium plant response rating (galium; [7]) | Galium plant response rating (galium; [8]) | Plant response rating, Galium (galium; [9]) | Plant response rating (scale of 0 to 100), Galium (galium) | Plant response rating, Blackgrass (blackgrass [1]; [10]) | Plant response rating, Blackgrass (blackgrass [1]; [11]) | Blackgrass plant response rating (blackgrass [2]; [4]) | other results
O=C1NCC(c2ccc(C(F)(F)F)cc2)C1C(=O)Nc1ccccc1F (stereo not drawn) [Compound 231] | 90 | 90 | 98 | 95 | 25 | 35 | 60 | 50 | 85 | 90 | 85 | 95 | 95 | 0 | 85 | 90 | 90 | – | – | – | Plant response rating, Blackgrass (blackgrass [1]; 125 g ai/ha, 0 to 100 scale, 0 is no effect, 100 is complete control): 40; Blackgrass plant response rating (0 to 100 scale, 0 is no effect, 100 is complete control) (blackgrass [1]; 500 g ai/ha): 60; Velvetleaf plant response rating (velvetleaf; [3]): 10; Plant response rating, Blackgrass (blackgrass [2]; [6]): 85; Plant response rating, Barnyardgrass (barnyardgrass; [6]): 90
CN1CC(c2cccc(C(F)(F)F)c2)C(C(=O)Nc2cccc(F)c2F)C1=O (stereo not drawn) [Compound 305] | 95 | 95 | 95 | 95 | 30 | 55 | 55 | 60 | 70 | 90 | 90 | 95 | 98 | 80 | 80 | 90 | 90 | 60 | 70 | 75 | Plant response rating, Foxtail, Giant (foxtail, giant; [12]): 0; Plant response rating, Foxtail, Giant (foxtail, giant; [13]): 65; Plant response rating, Foxtail, Giant (foxtail, giant; [14]): 85; Plant response rating, Foxtail, Giant (foxtail, giant; [15]): 90; Plant response rating, Velvetleaf (velvetleaf; [12]): 10; Plant response rating, Velvetleaf (velvetleaf; [13]): 40; Plant response rating, Velvetleaf (velvetleaf; [14]): 40; Plant response rating, Velvetleaf (velvetleaf; [15]): 65; Velvetleaf plant response rating (velvetleaf; [3]): 25; Plant response rating, Blackgrass (blackgrass [2]; [12]): 0; Plant response rating, Blackgrass (blackgrass [2]; [13]): 0; Plant response rating, Blackgrass (blackgrass [2]; [14]): 30; Plant response rating, Blackgrass (blackgrass [2]; [15]): 10; Plant response rating, Barnyardgrass (barnyardgrass; [12]): 20; Plant response rating, Barnyardgrass (barnyardgrass; [13]): 55; Plant response rating, Barnyardgrass (barnyardgrass; [14]): 70; Plant response rating, Barnyardgrass (barnyardgrass; [15]): 80; Barnyardgrass plant response rating (barnyardgrass; [4]): 95
CN1CC(c2ccc(C(F)(F)F)cc2)C(C(=O)Nc2cccc(F)c2F)C1=O (stereo not drawn) [Compound 306] | 90 | 95 | 95 | 100 | 60 | 60 | 65 | 0 | 60 | 90 | 90 | 90 | 95 | 90 | 60 | 90 | 90 | 50 | 60 | 30 | Plant response rating, Foxtail, Giant (foxtail, giant; [12]): 5; Plant response rating, Foxtail, Giant (foxtail, giant; [13]): 75; Plant response rating, Foxtail, Giant (foxtail, giant; [14]): 60; Plant response rating, Foxtail, Giant (foxtail, giant; [15]): 85; Plant response rating, Velvetleaf (velvetleaf; [12]): 0; Plant response rating, Velvetleaf (velvetleaf; [13]): 10; Plant response rating, Velvetleaf (velvetleaf; [14]): 50; Plant response rating, Velvetleaf (velvetleaf; [15]): 65; Plant response rating, Blackgrass (blackgrass [2]; [12]): 0; Plant response rating, Blackgrass (blackgrass [2]; [13]): 0; Plant response rating, Blackgrass (blackgrass [2]; [14]): 5; Plant response rating, Blackgrass (blackgrass [2]; [15]): 5; Plant response rating, Barnyardgrass (barnyardgrass; [12]): 0; Plant response rating, Barnyardgrass (barnyardgrass; [13]): 45; Plant response rating, Barnyardgrass (barnyardgrass; [14]): 85; Plant response rating, Barnyardgrass (barnyardgrass; [15]): 85; Barnyardgrass plant response rating (barnyardgrass; [4]): 90
CC(C)c1cccc(C2CNC(=O)C2C(=O)Nc2cccc(F)c2F)c1 (stereo not drawn) [Compound 319] | 70 | 85 | – | 95 | 20 | – | – | 40 | – | 80 | 90 | 95 | 98 | 95 | 70 | – | 85 | 40 | 50 | 0 | Plant response rating, Foxtail, Giant (foxtail, giant; [16]): 95; Plant response rating, Velvetleaf (velvetleaf; [16]): 45; Plant response rating, Blackgrass (blackgrass [2]; [16]): 30; Barnyardgrass plant response rating (barnyardgrass; [4]): 95; Plant response rating, Galium (galium; scale 0 to 100): 80
